{
  "source": "patent US20010034367A1",
  "about": "“Compositions and methods for the treatment of cystic fibrosis” (priority 1998, published 2001)",
  "key": {"[1]": {"conditions": "in vivo; cited from earlier work"}, "[2]": {"biological_target": "T1, ΔF508-CFTR (Homo sapiens, UniProt P13569, DEL508-508)", "T1 construct": "primary cultures of nasal polyp epithelia from CF patients (ΔF508 homozygous or heterozygous), or the CF bronchial epithelial cell line IB3-1; endogenous in cells; host or cells: primary nasal polyp epithelia from CF patients; IB3-1 CF bronchial epithelial cell line", "T1 sequence (P13569 with tags, fused parts or gaps DEL508-508)": "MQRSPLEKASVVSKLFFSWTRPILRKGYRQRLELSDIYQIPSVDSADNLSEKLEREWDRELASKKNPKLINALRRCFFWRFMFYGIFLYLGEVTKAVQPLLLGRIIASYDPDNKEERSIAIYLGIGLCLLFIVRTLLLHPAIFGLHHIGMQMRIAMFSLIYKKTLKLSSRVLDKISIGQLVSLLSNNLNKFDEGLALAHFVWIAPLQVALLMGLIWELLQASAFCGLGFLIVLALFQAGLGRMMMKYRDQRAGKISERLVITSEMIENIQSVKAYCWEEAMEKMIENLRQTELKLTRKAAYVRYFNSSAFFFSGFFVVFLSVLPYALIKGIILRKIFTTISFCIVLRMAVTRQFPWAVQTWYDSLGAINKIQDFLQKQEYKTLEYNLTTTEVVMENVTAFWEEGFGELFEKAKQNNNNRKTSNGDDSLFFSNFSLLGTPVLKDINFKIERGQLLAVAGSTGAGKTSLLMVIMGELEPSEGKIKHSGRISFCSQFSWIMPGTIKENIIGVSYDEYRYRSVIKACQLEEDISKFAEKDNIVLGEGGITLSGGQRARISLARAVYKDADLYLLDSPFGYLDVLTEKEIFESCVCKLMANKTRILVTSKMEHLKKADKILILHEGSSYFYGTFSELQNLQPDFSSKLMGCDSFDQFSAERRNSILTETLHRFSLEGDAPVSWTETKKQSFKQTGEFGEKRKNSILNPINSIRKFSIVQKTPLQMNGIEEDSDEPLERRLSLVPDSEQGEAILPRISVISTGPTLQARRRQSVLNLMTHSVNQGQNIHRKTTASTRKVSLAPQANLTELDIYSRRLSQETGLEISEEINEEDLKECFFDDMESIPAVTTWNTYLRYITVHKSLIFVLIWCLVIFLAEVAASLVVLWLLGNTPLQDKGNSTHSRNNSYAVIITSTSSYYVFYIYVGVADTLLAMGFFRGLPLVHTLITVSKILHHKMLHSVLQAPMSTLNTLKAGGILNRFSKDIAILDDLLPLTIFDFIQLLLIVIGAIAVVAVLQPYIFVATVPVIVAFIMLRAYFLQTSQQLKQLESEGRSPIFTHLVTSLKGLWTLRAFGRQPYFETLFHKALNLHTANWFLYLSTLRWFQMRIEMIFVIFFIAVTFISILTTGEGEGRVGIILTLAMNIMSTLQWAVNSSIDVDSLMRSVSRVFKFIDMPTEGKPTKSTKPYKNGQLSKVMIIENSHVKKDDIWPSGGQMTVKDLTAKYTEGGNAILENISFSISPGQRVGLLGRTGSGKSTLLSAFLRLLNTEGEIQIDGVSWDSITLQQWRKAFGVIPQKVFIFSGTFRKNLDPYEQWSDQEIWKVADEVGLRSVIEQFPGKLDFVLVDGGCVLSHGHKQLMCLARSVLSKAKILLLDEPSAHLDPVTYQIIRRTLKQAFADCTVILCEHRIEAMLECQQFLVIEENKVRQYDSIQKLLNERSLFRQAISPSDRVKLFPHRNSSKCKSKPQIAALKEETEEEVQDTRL", "conditions": "IB3-1 cells; 2.5 mM; cited from earlier work"}, "[3]": {"biological_target": "T1, ΔF508-CFTR", "conditions": "0.1 and 2 mM; primary nasal polyp epithelia or IB3-1 cells; up to 7 days in culture; cited from earlier work"}, "[4]": {"system": "CFTR gene", "conditions": "cited from earlier work"}, "[5]": {"system": "ΔF508-CFTR", "conditions": "cited from earlier work"}, "[6]": {"system": "ΔF508-CFTR", "conditions": "CF epithelial cells; cited from earlier work"}, "[7]": {"system": "IB3-1 cells", "conditions": "respiratory epithelial cells; 1-2 mM; cited from earlier work"}, "[8]": {"system": "ΔF508-homozygous pancreatic acinar cell line", "conditions": "cited from earlier work"}, "[9]": {"system": "ΔF508-CFTR", "conditions": "up to 300 mM; cited from earlier work"}, "[10]": {"biological_target": "T1, ΔF508-CFTR", "conditions": "1 M or 10%; cited from earlier work"}, "[11]": {"system": "fetal hemoglobin", "experiment": "fetal hemoglobin levels in thalassemic patients", "format": "in vivo", "text": "Compositions administered in pulses have the surprising benefit of reducing the overall load of drug on the patient as the total amount of drug administered can be substantially less than that amount that has been therapeutically administered by conventional continuous therapy. Substantially means that there is more than an insignificant difference between the amount or concentration of a composition administered by pulsing according to the invention verses the amount or concentration administered using conventional therapy, without compromising the beneficial effect achieved to the patient. […] Typical pulsed amounts of arginine butyrate are from about 2 to about 20 g/kg/month, and preferably from about 3 to about 10 g/kg/month wherein the patient receives a total of less than about 20 kg per month, preferably less than about 15 kg per month and more preferably less than about 10 kg per month. […] Preferably, the therapeutically effective pulsed dose is less than the continuous dose, or less than one half, one third, one quarter, one fifth, one tenth or even one twentieth of the therapeutic continuous dose of the same composition or even less."}, "[12]": {"conditions": "in vivo; cited from earlier work", "remark": "listed apart in the source"}},
  "note": "Entries after “also recorded” stand apart in the source; their conditions may differ. Read-outs that look alike come from different tables or passages of the source.",
  "data": [
    {"compound": "O=C(O)CCCc1ccccc1", "note": "[4PBA, 4-phenylbutyrate]", "values": [
      {"measurement": "clinical tolerability", "setting": "[1]", "value": "not well tolerated"},
      {"measurement": "protein kinase A-activated, linear, 10 pS chloride channels at the plasma membrane", "setting": "[2]", "value": "appeared at the plasma membrane"},
      {"measurement": "forskolin-activated chloride secretion", "setting": "[3]", "value": "restoration of forskolin-activated chloride secretion"},
      {"measurement": "CFTR RNA levels", "setting": "[4]", "value": "no changes in CFTF RNA levels; also recorded: no increases in CFTR mRNA"},
      {"measurement": "CFTR immunoreactivity in immunoblot experiments", "setting": "[5]; 4PBA-treated samples", "value": "increased CFTR immunoreactivity"},
      {"measurement": "higher molecular mass forms of CFTR (immunoblot)", "setting": "[5]; IB3-1 cells, 0.1-1 mM", "value": "appearance of higher molecular mass forms of CFTR"},
      {"measurement": "higher molecular mass forms of CFTR (immunoblot)", "setting": "[5]; primary nasal epithelia, 5 mM", "value": "appearance of higher molecular mass forms of CFTR"},
      {"measurement": "amount of ΔF508-CFTR by immunocytochemistry", "setting": "[6]", "value": "consistent with increasing amounts of ΔF508-CFTR; also recorded: Increased CFTR immunoreactivity"}
    ]},
    {"compound": "CCCC(=O)O", "note": "[butyrate, butyric acid]", "values": [
      {"measurement": "cell health, growth rate and morphology", "setting": "[7]", "value": "morphologic changes in IB3-1 cells, with rounding of cells and decreased growth rate"},
      {"measurement": "cAMP-responsive chloride secretion", "setting": "[8]", "value": "can induce cAMP-responsive chloride secretion"},
      {"measurement": "cAMP-stimulation indicative of chloride ion transport", "setting": "[9]", "value": "no increases in cAMP-stimulation was observed"}
    ]},
    {"compound": "OCC(O)CO", "note": "[glycerol]", "values": [
      {"measurement": "movement of ΔF508-CFTR from the ER to the plasma membrane", "setting": "[10]", "value": "facilitate movement of ΔF508-CFTR from the ER to the plasma membrane"}
    ]},
    {"compound": "arginine butyrate", "values": [
      {"measurement": "effectiveness at continuous administration", "setting": "[11]; about 2000 mg/kg patient weight, continuous", "value": "effective"},
      {"measurement": "benefit measured by rise in fetal hemoglobin levels", "setting": "[11]; about 400 to 1500 mg/kg in pulses, thalassemic patients", "value": "surprisingly more beneficial"},
      {"measurement": "half-life", "setting": "[12]", "value": 15, "unit": "min"}
    ]}
  ]
}
